# Data as given in PubChem BioAssay (NCI).
#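 Values below derive from 48-hour exposures of cells grown in 96-well plates, with endpoints linearly interpolated between the two concentrations bracketing the appropriate inhibition level. The concentration for full growth arrest is given as TGI.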
# Assays:
# Assay in all cases: DTP human tumour cell line panel, 48 h
# 786-0 renal = tested on: 786-0 renal
# A498 renal = tested on: A498 renal
# A549 NSCLC = tested on: A549 NSCLC
# ACHN renal = tested on: ACHN renal
# CAKI-1 renal = tested on: CAKI-1 renal
# CCRF-CEM leukemia = tested on: CCRF-CEM leukemia
# COLO 205 colon = tested on: COLO 205 colon
# DLD-1 colon = tested on: DLD-1 colon
# DMS 114 small cell lung = tested on: DMS 114 small cell lung
# DMS 273 small cell lung = tested on: DMS 273 small cell lung
# EKVX NSCLC = tested on: EKVX NSCLC
# HCC-2998 colon = tested on: HCC-2998 colon
# HCT-116 colon = tested on: HCT-116 colon
# HCT-15 colon = tested on: HCT-15 colon
# HL-60(TB) leukemia = tested on: HL-60(TB) leukemia
# HOP-18 NSCLC = tested on: HOP-18 NSCLC
# HOP-62 NSCLC = tested on: HOP-62 NSCLC
# HOP-92 NSCLC = tested on: HOP-92 NSCLC
# HT29 colon = tested on: HT29 colon
# IGROV1 ovarian = tested on: IGROV1 ovarian
# K-562 leukemia = tested on: K-562 leukemia
# KM12 colon = tested on: KM12 colon
# KM20L2 colon = tested on: KM20L2 colon
# LOX IMVI melanoma = tested on: LOX IMVI melanoma
# LXFL 529 NSCLC = tested on: LXFL 529 NSCLC
# M14 melanoma = tested on: M14 melanoma
# M19-MEL melanoma = tested on: M19-MEL melanoma
# MALME-3M melanoma = tested on: MALME-3M melanoma
# MOLT-4 leukemia = tested on: MOLT-4 leukemia
# NCI-H226 lung = tested on: NCI-H226 lung
# NCI-H23 lung = tested on: NCI-H23 lung
# NCI-H460 lung = tested on: NCI-H460 lung
# NCI-H522 lung = tested on: NCI-H522 lung
# OVCAR-3 ovarian = tested on: OVCAR-3 ovarian
# OVCAR-4 ovarian = tested on: OVCAR-4 ovarian
# OVCAR-5 ovarian = tested on: OVCAR-5 ovarian
# OVCAR-8 ovarian = tested on: OVCAR-8 ovarian
# RPMI-8226 leukemia = tested on: RPMI-8226 leukemia
# RXF 393 renal = tested on: RXF 393 renal
# RXF-631 renal = tested on: RXF-631 renal
# SF-268 CNS = tested on: SF-268 CNS
# SF-295 CNS = tested on: SF-295 CNS
# SF-539 CNS = tested on: SF-539 CNS
# SK-MEL-2 melanoma = tested on: SK-MEL-2 melanoma
# SK-MEL-28 melanoma = tested on: SK-MEL-28 melanoma
# SK-MEL-5 melanoma = tested on: SK-MEL-5 melanoma
# SK-OV-3 ovarian = tested on: SK-OV-3 ovarian
# SN12C renal = tested on: SN12C renal
# SNB-19 CNS = tested on: SNB-19 CNS
# SNB-75 CNS = tested on: SNB-75 CNS
# SNB-78 CNS = tested on: SNB-78 CNS
# SR leukemia = tested on: SR leukemia
# SW-620 colon = tested on: SW-620 colon
# TK-10 renal = tested on: TK-10 renal
# U251 CNS = tested on: U251 CNS
# UACC-257 melanoma = tested on: UACC-257 melanoma
# UACC-62 melanoma = tested on: UACC-62 melanoma
# UO-31 renal = tested on: UO-31 renal
# XF 498 CNS = tested on: XF 498 CNS
# BT-549 breast = tested on: BT-549 breast
# DU-145 prostate = tested on: DU-145 prostate
# HS 578T breast = tested on: HS 578T breast
# MCF7 breast = tested on: MCF7 breast
# MDA-MB-231 breast = tested on: MDA-MB-231 breast
# MDA-MB-435 = tested on: MDA-MB-435
# MDA-N = tested on: MDA-N
# NCI/ADR-RES ovarian = tested on: NCI/ADR-RES ovarian
# PC-3 prostate = tested on: PC-3 prostate
# T-47D breast = tested on: T-47D breast
smiles,measurement,setting,value
Ic1cc2c(cc1C1SCCCS1)OCO2,TGI,786-0 renal,> 100 µM
same,TGI,A498 renal,> 100 µM
same,TGI,A549 NSCLC,> 100 µM
same,TGI,ACHN renal,> 100 µM
same,TGI,CAKI-1 renal,> 100 µM
same,TGI,CCRF-CEM leukemia,> 100 µM
same,TGI,COLO 205 colon,> 100 µM
same,TGI,DLD-1 colon,> 100 µM
same,TGI,DMS 114 small cell lung,> 100 µM
same,TGI,DMS 273 small cell lung,> 100 µM
same,TGI,EKVX NSCLC,> 100 µM
same,TGI,HCC-2998 colon,> 100 µM
same,TGI,HCT-116 colon,> 100 µM
same,TGI,HCT-15 colon,> 100 µM
same,TGI,HL-60(TB) leukemia,> 100 µM
same,TGI,HOP-18 NSCLC,> 100 µM
same,TGI,HOP-62 NSCLC,> 100 µM
same,TGI,HOP-92 NSCLC,> 100 µM
same,TGI,HT29 colon,> 100 µM
same,TGI,IGROV1 ovarian,> 100 µM
same,TGI,K-562 leukemia,> 100 µM
same,TGI,KM12 colon,> 100 µM
same,TGI,KM20L2 colon,> 100 µM
same,TGI,LOX IMVI melanoma,> 100 µM
same,TGI,LXFL 529 NSCLC,> 100 µM
same,TGI,M14 melanoma,> 100 µM
same,TGI,M19-MEL melanoma,> 100 µM
same,TGI,MALME-3M melanoma,> 100 µM
same,TGI,MOLT-4 leukemia,> 100 µM
same,TGI,NCI-H226 lung,> 100 µM
same,TGI,NCI-H23 lung,> 100 µM
same,TGI,NCI-H460 lung,> 100 µM
same,TGI,NCI-H522 lung,> 100 µM
same,TGI,OVCAR-3 ovarian,> 100 µM
same,TGI,OVCAR-4 ovarian,> 100 µM
same,TGI,OVCAR-5 ovarian,> 100 µM
same,TGI,OVCAR-8 ovarian,> 100 µM
same,TGI,RPMI-8226 leukemia,> 100 µM
same,TGI,RXF 393 renal,> 100 µM
same,TGI,RXF-631 renal,> 100 µM
same,TGI,SF-268 CNS,> 100 µM
same,TGI,SF-295 CNS,> 100 µM
same,TGI,SF-539 CNS,> 100 µM
same,TGI,SK-MEL-2 melanoma,> 100 µM
same,TGI,SK-MEL-28 melanoma,> 100 µM
same,TGI,SK-MEL-5 melanoma,> 100 µM
same,TGI,SK-OV-3 ovarian,> 100 µM
same,TGI,SN12C renal,> 100 µM
same,TGI,SNB-19 CNS,> 100 µM
same,TGI,SNB-75 CNS,> 100 µM
same,TGI,SNB-78 CNS,> 100 µM
same,TGI,SR leukemia,> 100 µM
same,TGI,SW-620 colon,> 100 µM
same,TGI,TK-10 renal,> 100 µM
same,TGI,U251 CNS,> 100 µM
same,TGI,UACC-257 melanoma,> 100 µM
same,TGI,UACC-62 melanoma,> 100 µM
same,TGI,UO-31 renal,> 100 µM
O=C(O)C12CCCCC1CCCC2 (stereo not given),TGI,A498 renal,> 100 µM
same,TGI,A549 NSCLC,> 100 µM
same,TGI,ACHN renal,> 100 µM
same,TGI,CAKI-1 renal,> 100 µM
same,TGI,CCRF-CEM leukemia,> 100 µM
same,TGI,COLO 205 colon,> 100 µM
same,TGI,DLD-1 colon,> 100 µM
same,TGI,DMS 114 small cell lung,> 100 µM
same,TGI,DMS 273 small cell lung,> 100 µM
same,TGI,EKVX NSCLC,> 100 µM
same,TGI,HCC-2998 colon,> 100 µM
same,TGI,HCT-116 colon,> 100 µM
same,TGI,HCT-15 colon,> 100 µM
same,TGI,HL-60(TB) leukemia,> 100 µM
same,TGI,HOP-18 NSCLC,> 100 µM
same,TGI,HOP-62 NSCLC,> 100 µM
same,TGI,HOP-92 NSCLC,> 100 µM
same,TGI,HT29 colon,> 100 µM
same,TGI,IGROV1 ovarian,> 100 µM
same,TGI,K-562 leukemia,> 100 µM
same,TGI,KM12 colon,> 100 µM
same,TGI,KM20L2 colon,> 100 µM
same,TGI,LOX IMVI melanoma,> 100 µM
same,TGI,LXFL 529 NSCLC,> 100 µM
same,TGI,M14 melanoma,> 100 µM
same,TGI,M19-MEL melanoma,> 100 µM
same,TGI,MOLT-4 leukemia,> 100 µM
same,TGI,NCI-H226 lung,> 100 µM
same,TGI,NCI-H23 lung,> 100 µM
same,TGI,NCI-H460 lung,> 100 µM
same,TGI,NCI-H522 lung,> 100 µM
same,TGI,OVCAR-3 ovarian,> 100 µM
same,TGI,OVCAR-4 ovarian,> 100 µM
same,TGI,OVCAR-5 ovarian,> 100 µM
same,TGI,OVCAR-8 ovarian,> 100 µM
same,TGI,RPMI-8226 leukemia,> 100 µM
same,TGI,SF-268 CNS,> 100 µM
same,TGI,SF-295 CNS,> 100 µM
same,TGI,SF-539 CNS,> 100 µM
same,TGI,SK-MEL-28 melanoma,> 100 µM
same,TGI,SK-MEL-5 melanoma,> 100 µM
same,TGI,SK-OV-3 ovarian,> 100 µM
same,TGI,SN12C renal,> 100 µM
same,TGI,SNB-19 CNS,> 100 µM
same,TGI,SNB-75 CNS,> 100 µM
same,TGI,SW-620 colon,> 100 µM
same,TGI,TK-10 renal,> 100 µM
same,TGI,U251 CNS,> 100 µM
same,TGI,UACC-62 melanoma,> 100 µM
same,TGI,XF 498 CNS,> 100 µM
CCN(CC)Cc1c(/C=C\c2cc(OC)c(OC)c(OC)c2)ccc(OC)c1O,TGI,786-0 renal,78.9 µM
same,TGI,A498 renal,17.4 µM
same,TGI,A549 NSCLC,> 100 µM
same,TGI,ACHN renal,> 100 µM
same,TGI,BT-549 breast,> 82.2 µM
same,TGI,CAKI-1 renal,> 100 µM
same,TGI,CCRF-CEM leukemia,> 100 µM
same,TGI,COLO 205 colon,7.36 µM
same,TGI,DLD-1 colon,> 100 µM
same,TGI,DMS 114 small cell lung,5.68 µM
same,TGI,DMS 273 small cell lung,> 100 µM
same,TGI,DU-145 prostate,39.7 µM
same,TGI,EKVX NSCLC,> 93.5 µM
same,TGI,HCC-2998 colon,20.4 µM
same,TGI,HCT-116 colon,42.7 µM
same,TGI,HCT-15 colon,34.8 µM
same,TGI,HL-60(TB) leukemia,> 60.8 µM
same,TGI,HOP-18 NSCLC,> 100 µM
same,TGI,HOP-62 NSCLC,> 100 µM
same,TGI,HOP-92 NSCLC,> 100 µM
same,TGI,HS 578T breast,6.22 µM
same,TGI,HT29 colon,9.48 µM
same,TGI,IGROV1 ovarian,> 78.5 µM
same,TGI,K-562 leukemia,> 100 µM
same,TGI,KM12 colon,27.1 µM
same,TGI,KM20L2 colon,11.9 µM
same,TGI,LOX IMVI melanoma,> 100 µM
same,TGI,LXFL 529 NSCLC,> 100 µM
same,TGI,M14 melanoma,> 59.1 µM
same,TGI,M19-MEL melanoma,> 100 µM
same,TGI,MALME-3M melanoma,> 100 µM
same,TGI,MCF7 breast,99.4 µM
same,TGI,MDA-MB-231 breast,> 100 µM
same,TGI,MDA-MB-435,0.826 µM
same,TGI,MDA-N,1.59 µM
same,TGI,MOLT-4 leukemia,> 100 µM
same,TGI,NCI-H226 lung,27.3 µM
same,TGI,NCI-H23 lung,14.3 µM
same,TGI,NCI-H460 lung,> 100 µM
same,TGI,NCI-H522 lung,6.22 µM
same,TGI,NCI/ADR-RES ovarian,6.29 µM
same,TGI,OVCAR-3 ovarian,6.49 µM
same,TGI,OVCAR-4 ovarian,> 75.5 µM
same,TGI,OVCAR-5 ovarian,> 100 µM
same,TGI,OVCAR-8 ovarian,63.2 µM
same,TGI,PC-3 prostate,> 41.5 µM
same,TGI,RPMI-8226 leukemia,> 100 µM
same,TGI,RXF 393 renal,9.35 µM
same,TGI,SF-268 CNS,52.2 µM
same,TGI,SF-295 CNS,32.1 µM
same,TGI,SF-539 CNS,9.24 µM
same,TGI,SK-MEL-2 melanoma,> 37.1 µM
same,TGI,SK-MEL-28 melanoma,> 100 µM
same,TGI,SK-MEL-5 melanoma,> 83.7 µM
same,TGI,SK-OV-3 ovarian,10.2 µM
same,TGI,SN12C renal,> 71.7 µM
same,TGI,SNB-19 CNS,> 100 µM
same,TGI,SNB-75 CNS,9.49 µM
same,TGI,SNB-78 CNS,> 100 µM
same,TGI,SW-620 colon,> 100 µM
same,TGI,T-47D breast,> 100 µM
same,TGI,TK-10 renal,> 100 µM
same,TGI,U251 CNS,17.2 µM
same,TGI,UACC-257 melanoma,> 100 µM
same,TGI,UACC-62 melanoma,27.7 µM
same,TGI,UO-31 renal,> 94.1 µM
same,TGI,XF 498 CNS,21.5 µM
